How the values were obtained:
Assay type in all cases: cell-based
[1] = test system: Staphyulococcus aureus (gram positive); experiment: Zone of inhibition on agar, antibiotic-coated composite hernia patch segments; conditions: hernia patch (polypropylene mesh/PTFE) segment 10x10x2 mm, coating solution 100 mg/ml of each antibiotic, long axis perpendicular to agar
Description: (§1) The device used in this example is a composite hernia patch with polypropylene mesh on one side and polytetrafluoroethylene (PTFE) on the other side. Antibiotics were incorporated onto devices by using a patented method (U.S. Pat. No. 6,589,591) that utilized coating solutions that contained 100 mg/ml of minocycline; 100 mg/ml tobramycin; 100 mg/ml gentamicin; 100 mg/ml minocycline and 100 mg/ml tobramycin (minocycline dissolved first); or 100 mg/ml minocycline and 100 mg/ml gentamicin (minocycline dissolved first). The tested square device segments were 10 mm (long)×10 mm (wide)×2 mm (thick). The device segments were placed onto agar with their long axis perpendicular to the agar (i.e. only 2 mm of the segment was in contact with the agar). All zone of inhibition are expressed in mm, and table 1 summarizes the results of the zones of inhibition.

[2] = test system: Escherichia coli (gram negative); experiment: as above; conditions: hernia patch (polypropylene mesh/PTFE) segment 10x10x2 mm, coating solution 100 mg/ml of each antibiotic, long axis perpendicular to agar; for zone of inhibition at 100000 µg/mL: Escherichia coli
Description: as §1

[3] = test system: Enterococcus faecalis (gram positive); experiment: as above; conditions: hernia patch (polypropylene mesh/PTFE) segment 10x10x2 mm, coating solution 100 mg/ml of each antibiotic, long axis perpendicular to agar; for zone of inhibition at 100000 µg/mL: Enterococcus faecalis
Description: as §1

[4] = test system: Staphylococcus epidermidis; experiment: Zone of inhibition on agar, antibiotic-coated polyurethane central venous catheter segments; conditions: 7-french polyurethane central venous catheter segment 10x2 mm, coating solution 100 mg/ml of each antibiotic, long axis parallel to agar; for zone of inhibition at 100000 µg/mL: Staphylococcus epidermidis
Description: The device used in this example is a 7-french, polyurethane central venous catheter. Antibiotics were incorporated onto devices by using a patented method (U.S. Pat. No. 6,589,591) that utilized coating solutions that contained 100 mg/ml of minocycline; 100 mg/ml tobramycin; 100 mg/ml gentamicin; 100 mg/ml minocycline and 100 mg/ml tobramycin (minocycline dissolved first); or 100 mg/ml minocycline and 100 mg/ml gentamicin (minocycline dissolved first). The tested catheter segments were 10 mm (long)×2 mm (wide). The cather segments were placed onto agar with their long axis parerrel to the agar. All zone of inhibition are expressed in mm, and table 2 summarizes the results of the zones of inhibition.

Compound	zone of inhibition at 100000 µg/mL [1] [mm]	zone of inhibition at 100000 µg/mL [2] [mm]	zone of inhibition at 100000 µg/mL [3] [mm]	zone of inhibition at 100000 µg/mL [4] [mm]	zone of inhibition, Staphyulococcus aureus (gram positive) [1] [mm]	zone of inhibition, Escherichia coli (gram negative) [2] [mm]	zone of inhibition, Enterococcus faecalis (gram positive) [3] [mm]	zone of inhibition, Staphylococcus epidermidis [4] [mm]
CN(C)c1ccc(O)c2c1C[C@H]1C[C@H]3[C@H](N(C)C)C(O)=C(C(N)=O)C(=O)[C@@]3(O)C(O)=C1C2=O [Minocycline, minocycline]	11	3	3	30	–	–	–	–
NC[C@H]1O[C@H](O[C@H]2[C@H](O)[C@@H](O[C@H]3O[C@H](CO)[C@@H](O)[C@H](N)[C@H]3O)[C@H](N)C[C@@H]2N)[C@H](N)C[C@@H]1O [Tobramycin, tobramycin]	12	18	9	14	–	–	–	–
gentamicin	–	–	–	–	14	11	0	6
